Measured values reported in US20130189366A1, “DRUG DELIVERY SYSTEMS AND METHODS OF USE” (Brown University, priority 2012, published 2013).
Counter-ions that a name gives are not always drawn.

Key:
[1] = test system: tetracycline inducible gene expression system (CHO-K1 Tet-IGF1 cells); assay: DOX-induced IGF-1 release from CHO-K1 Tet-IGF1 cells (ELISA); assay type: cell-based, Chinese hamster; conditions: encapsulated and unencapsulated CHO-K1 Tet-IGF1 cells, 24 hours
Experimental: Chinese hamster ovary cells (CHO-K1 Tet-On, Clontech Laboratories, Mountain View, Calif.), stably transfected to express the transactivator protein (rtTA) for a tetracycline inducible gene expression system, were cultured at 37° C. and 5% CO2 in DMEM supplemented with 10% tetracycline-free FBS (Clontech), 1% penicillin/streptomycin (Invitrogen, Carlsbad, Calif.), and 200 μg/mL G418 (Sigma-Aldrich). All cell counting was done using Trypan Blue exclusion and the COUNTESS® Automated Cell Counter (Invitrogen). […]
The quantity of human IGF-1 from each supernatant sample was determined using ELISA (R&D Systems, Minneapolis, Minn.) and SPECTRAMAX® Absorbance plate reader (Molecular Devices, Sunnydale, Calif.). All samples were run in triplicate and amount released was normalized to one million viable cells per sample as counted at the end of each study.
Modified and unmodified cells were plated in 6-well tissue culture plates at a density of 3×10^5 cells per well (n=6 per cell type). […] At the end of the study, cells were trypsinized and counted.
Modified encapsulated and unencapsulated cells were plated into 12-well tissue culture plates. […] At the end of the study, cells were trypsinized and counted.
Encapsulated modified and unmodified cells were plated in 12-well tissue culture plates at an equal density per well and cultured at 32° C. […] On day 10, capsules were solubilized and cells were counted.

CHO-K1 Tet-IGF1 cells = assay: Co-culture of CHO-K1 Tet-IGF1 cells with DOX loaded PLGA microspheres or bolus DOX, IGF-1 ELISA; assay type: cell-based, Chinese hamster; conditions: total 2 μg DOX over 24 hours, unencapsulated and encapsulated cultures
Experimental: Cells were encapsulated and encapsulated cell count and viability were determined as described in Examples 1 and 2. Microencapsulated and unencapsulated CHO-K1 Tet-IGF1 cells were co-cultured with DOX loaded PLGA microspheres to assess DOX-inducible IGF-1 synthesis and delivery. Approximately 5×10^5 encapsulated or 5×10^4 unencapsulated cells were plated per well in 12-well plates. After incubating cultures for 24 hours at 37° C., medium was completely removed from each well and 2 mL fresh media containing one of the following was added to each well (n=3): 1 μg/mL DOX (Clontech), 1.6 mg of DOX loaded PLGA microspheres, 1.6 mg of unloaded PLGA control microspheres, or no DOX. The mass of spheres used in these studies was calculated to release a total of 2 μg of DOX after 24 hours of incubation as determined by the results of the cumulative in vitro release. Cultures were incubated for another 24 hours, at which time the supernatant from each culture was removed and stored at −20° C. for later measurement. For unencapsulated cultures, cells were trypsinized and counted using Trypan Blue exclusion. For encapsulated cultures, cells were collected via alginate solubilization prior to counting. IGF-1 was quantified as described in Example 2.

C[C@H]1c2cccc(O)c2C(=O)C2=C(O)[C@]3(O)C(=O)C(C(N)=O)=C(O)[C@@H](N(C)C)[C@@H]3[C@@H](O)[C@@H]21 [DOX, doxycycline hydrochloride] was tested, and the “DOX concentration giving detectable IGF-1 release” value [1] was ≥ 0.125 µg/mL and the “IGF-1 synthesis and delivery after 24 hours” value (CHO-K1 Tet-IGF1 cells) was “induced”.
